Drawing on patent US10702521B2, “Methods for treating neisseria gonorrhoeae infection with substituted 1,2-dihydro-2A,5,8A-triazaacenaphthylene-3,8-diones” (priority 2014, dated 2020), this text covers MIC for 26 compounds.

The structures appear in SMILES notation. Where a name gives a salt, the structure may show the parent alone.

For the first assay, the system named is Mycobacterium tuberculosis H37Rv. The experiment in a line: Mycobacterium tuberculosis H37Rv Inhibition Assay (resazurin MIC). Format: cell-based. The conditions noted are these: 144 h, H37Rv strain, six days incubation, resazurin fluorescence after 48 hours, read-out: MIC value.
One may read the MIC as the least concentration at which growth counts as inhibited. Regarding `O=C1CSc2ccc(CNC3CCN(CC4Cn5c(=O)ccc6ccc(=O)n4c65)CC3)cc2N1` (racemic) [Example 12, 1-[(4-{[(3-Oxo-3,4-dihydro-2H-1,4-benzothiazin-6-yl)methyl]amino}-1-piperidinyl)methyl]-1,2-dihydro-4H,9H-imidazo[1,2,3-ij]-1,8-naphthyridine-4,9-dione hydrochloride (2:1 mixture of R:S)], the MIC is below 2 µg/mL. Still for that read-out and setting: in the case of `Cl.O=c1ccc2ncc(=O)n3c2n1C[C@H]3CN1CCC(NCc2cc3c(cn2)OCCS3)CC1` [Example 19A, (2R)-2-({4-[(2,3-Dihydro[1,4]oxathiino[2,3-c]pyridin-7-ylmethyl)amino]-1-piperidinyl}methyl)-1,2-dihydro-3H,8H-2a,5,8a-triazaacenaphthylene-3,8-dione hydrochloride] it was below 2 µg/mL; in that of `O=c1ccc2ccc(=O)n3c2n1C[C@H]3CN1CCC(NCc2ccc3c(c2)OCCO3)CC1` [Example 30, (1R)-1-({4-[(2,3-Dihydro-1,4-benzodioxin-6-ylmethyl)amino]-1-piperidinyl}methyl)-1,2-dihydro-4H,9H-imidazo[1,2,3-ij]-1,8-naphthyridine-4,9-dione hydrochloride], below 2 µg/mL; in that of `O=c1ccc2ccc(=O)n3c2n1C[C@H]3CN1CCC(NCc2cc(F)c3c(c2)OCCO3)CC1` [Example 31, (1R)-1-[(4-{[(8-Fluoro-2,3-dihydro-1,4-benzodioxin-6-yl)methyl]amino}-1-piperidinyl)methyl]-1,2-dihydro-4H,9H-imidazo[1,2,3-ij]-1,8-naphthyridine-4,9-dione hydrochloride], below 2 µg/mL. Still for that read-out and setting: in the case of `Cl.Cl.O=C1COc2cc(Cl)c(CNC3CCN(C[C@@H]4Cn5c(=O)ccc6ccc(=O)n4c65)CC3)nc2N1` [Example 32, (1R)-1-[(4-{[(7-Chloro-3-oxo-3,4-dihydro-2H-pyrido[3,2-b][1,4]oxazin-6-yl)methyl]amino}-1-piperidinyl)methyl]-1,2-dihydro-4H,9H-imidazo[1,2,3-ij]-1,8-naphthyridine-4,9-dione dihydrochloride] it was below 2 µg/mL.

Still in this assay, the particulars now being: 144 h, read-out: MIC value, H37Rv strain, six days incubation, resazurin fluorescence after 48 hours.
`O=c1ccc2ccc(=O)n3c2n1C[C@H]3CN1CCC(NCc2cc3c(cn2)OCS3)CC1` [Example 5A, (1R)-1-({4-[([1,3]Oxathiolo[5,4-c]pyridin-6-ylmethyl)amino]-1-piperidinyl}methyl)-1,2-dihydro-4H,9H-imidazo[1,2,3-ij]-1,8-naphthyridine-4,9-dione hydrochloride]: the minimal inhibitory concentration (MIC) is below 2 µg/mL. As for `O=c1ccc2ccc(=O)n3c2n1C[C@H]3CN1CCC(NCc2cc3c(cn2)CCCC3)CC1` [Example 7, (1R)-1-({4-[(5,6,7,8-Tetrahydro-3-isoquinolinylmethyl)amino]-1-piperidinyl}methyl)-1,2-dihydro-4H,9H-imidazo[1,2,3-ij]-1,8-naphthyridine-4,9-dione hydrochloride], the MIC was below 2 µg/mL. `O=c1ccc2ccc(=O)n3c2n1C[C@H]3CN1CCC(NCc2cc3c(cn2)CCC3)CC1` [Example 8, (1R)-1-({4-[(6,7-Dihydro-5H-cyclopenta[c]pyridin-3-ylmethyl)amino]-1-piperidinyl}methyl)-1,2-dihydro-4H,9H-imidazo[1,2,3-ij]-1,8-naphthyridine-4,9-dione hydrochloride]: the MIC was below 2 µg/mL. Consider `O=c1cnc2ccc(=O)n3c2n1C[C@H]3CN1CCC(NCc2cc3c(cn2)OCS3)CC1` [Example 13A, (1R)-1-({4-[([1,3]Oxathiolo[5,4-c]pyridin-6-ylmethyl)amino]-1-piperidinyl}methyl)-1,2-dihydro-3H,8H-2a,5,8a-triazaacenaphthylene-3,8-dione hydrochloride], for which the MIC was below 2 µg/mL.

As for `O=c1cnc2ccc(=O)n3c2n1C[C@H]3CN1CCC(NCc2cc3c(cn2)OCCS3)CC1` [Example 14, (1R)-1-({4-[(2,3-Dihydro[1,4]oxathiino[2,3-c]pyridin-7-ylmethyl)amino]-1-piperidinyl}methyl)-1,2-dihydro-3H,8H-2a,5,8a-triazaacenaphthylene-3,8-dione hydrochloride], the MIC was below 2 µg/mL.

As to `O=c1ccc2ncc(=O)n3c2n1C[C@H]3CN1CCC(NCc2cc3c(cn2)OCS3)CC1` [Example 16A, (2R)-2-({4-[([1,3]Oxathiolo[5,4-c]pyridin-6-ylmethyl)amino]-1-piperidinyl}methyl)-1,2-dihydro-3H,8H-2a,5,8a-triazaacenaphthylene-3,8-dione hydrochloride], the minimal inhibitory concentration (MIC) is below 2 µg/mL. The same measure, in the same setting: in the case of `O=c1ccc2ncc(=O)n3c2n1C[C@H]3CN1CCC(NCc2ccc3nsnc3c2)CC1` [Example 25, (2R)-2-({4-[(2,1,3-Benzothiadiazol-5-ylmethyl)amino]-1-piperidinyl}methyl)-1,2-dihydro-3H,8H-2a,5,8a-triazaacenaphthylene-3,8-dione hydrochloride] it was at most 1 µg/mL; in that of `O=c1ccc2ncc(=O)n3c2n1C[C@H]3CN1CCC(NCc2cc3c(cc2F)OCCO3)CC1` [Example 26, (2R)-2-[(4-{[(7-Fluoro-2,3-dihydro-1,4-benzodioxin-6-yl)methyl]amino}-1-piperidinyl)methyl]-1,2-dihydro-3H,8H-2a,5,8a-triazaacenaphthylene-3,8-dione hydrochloride], at most 1 µg/mL; in that of `O=c1cnc2ccc(=O)n3c2n1C[C@H]3CN1CCC(NCc2cc3c(cn2)OCCC3)CC1` [Example 37, (1R)-1-({4-[(3,4-Dihydro-2H-pyrano[2,3-c]pyridin-6-ylmethyl)amino]-1-piperidinyl}methyl)-1,2-dihydro-3H,8H-2a,5,8a-triazaacenaphthylene-3,8-dione hydrochloride], below 2 µg/mL. In the case of `O=c1ccc2ncc(=O)n3c2n1C[C@H]3CN1CCC(NCc2ccc3c(c2)OCCO3)CC1` [Example 40, (2R)-2-({4-[(2,3-Dihydro-1,4-benzodioxin-6-ylmethyl)amino]-1-piperidinyl}methyl)-1,2-dihydro-3H,8H-2a,5,8a-triazaacenaphthylene-3,8-dione hydrochloride], the MIC is below 2 µg/mL.

The same assay, now with this note: H37Rv strain, six days incubation, resazurin fluorescence after 48 hours, read-out: MIC value.
With `O=c1ccc2ccc(=O)n3c2n1CC3CN1CCC(NCc2cc3c(cn2)OCCS3)CC1` (racemic) [Example 63], the MIC is below 2 µg/mL. The same measure, in the same setting: in the case of `CC1(NCc2cc3c(cn2)OCCS3)CCN(C[C@@H]2Cn3c(=O)ccc4ccc(=O)n2c43)CC1` [Example 23, (1R)-1-({4-[(2,3-Dihydro[1,4]oxathiino[2,3-c]pyridin-7-ylmethyl)amino]-4-methyl-1-piperidinyl}methyl)-1,2-dihydro-4H,9H-imidazo[1,2,3-ij]-1,8-naphthyridine-4,9-dione hydrochloride] it was below 2 µg/mL; in that of `CC1(NCc2cc3c(cn2)OCS3)CCN(C[C@@H]2Cn3c(=O)ccc4ccc(=O)n2c43)CC1.Cl` [Example 24, (1R)-1-({4-Methyl-4-[([1,3]oxathiolo[5,4-c]pyridin-6-ylmethyl)amino]-1-piperidinyl}methyl)-1,2-dihydro-4H,9H-imidazo[1,2,3-ij]-1,8-naphthyridine-4,9-dione hydrochloride], below 2 µg/mL. On the same count and under the same terms, in the case of `O=c1ccc2ncc(=O)n3c2n1C[C@H]3CN1CCC(NCc2cc3c(cn2)SCO3)CC1` [Example 28, (2R)-2-({4-[([1,3]Oxathiolo[4,5-c]pyridin-6-ylmethyl)amino]-1-piperidinyl}methyl)-1,2-dihydro-3H,8H-2a,5,8a-triazaacenaphthylene-3,8-dione hydrochloride] it was below 2 µg/mL.

Regarding `O=C1CSc2ccc(CNC3CCN(C[C@@H]4Cn5c(=O)ccc6ncc(=O)n4c65)CC3)nc2N1` [Example 29, (2R)-2-[(4-{[(3-Oxo-3,4-dihydro-2H-pyrido[3,2-b][1,4]thiazin-6-yl)methyl]amino}-1-piperidinyl)methyl]-1,2-dihydro-3H,8H-2a,5,8a-triazaacenaphthylene-3,8-dione hydrochloride], the minimal inhibitory concentration (MIC) is below 2 µg/mL. On the same count and under the same terms, in the case of `Cl.N#Cc1cc(CNC2CCN(C[C@@H]3Cn4c(=O)ccc5ncc(=O)n3c54)CC2)cc2c1OCCO2` [Example 42, 7-{[(1-{[(2R)-3,8-Dioxo-1,2-dihydro-3H,8H-2a,5,8a-triazaacenaphthylen-2-yl]methyl}-4-piperidinyl)amino]methyl}-2,3-dihydro-1,4-benzodioxin-5-carbonitrile hydrochloride] it was below 2 µg/mL.

Staying with this assay, now noted: read-out: MIC value, H37Rv strain, six days incubation, resazurin fluorescence after 48 hours.
As for `O=c1ccc2ccc(=O)n3c2n1CC3CN1CCC(NCc2cc3c(cn2)OCS3)CC1` (centres unmarked) [Example 2, 1-({4-[([1,3]Oxathiolo[5,4-c]pyridin-6-ylmethyl)amino]-1-piperidinyl}methyl)-1,2-dihydro-4H,9H-imidazo[1,2,3-ij]-1,8-naphthyridine-4,9-dione hydrochloride], the MIC is below 2 µg/mL.

In the case of `O=c1ccc2ccc(=O)n3c2n1C[C@H]3CN1CCC(NCc2cc3c(cn2)OCCS3)CC1` [Example 6A, (1R)-1-({4-[(2,3-Dihydro[1,4]oxathiino[2,3-c]pyridin-7-ylmethyl)amino]-1-piperidinyl}methyl)-1,2-dihydro-4H,9H-imidazo[1,2,3-ij]-1,8-naphthyridine-4,9-dione hydrochloride], the minimum inhibitory concentration (MIC) is below 2 µg/mL. Still for that read-out and setting: in the case of `O=c1ccc2ncc(=O)n3c2n1CC3CN1CCC(NCc2cc3c(cn2)OCCS3)CC1` (centres unmarked) [Example 20, 2-({4-[(2,3-Dihydro[1,4]oxathiino[2,3-c]pyridin-7-ylmethyl)amino]-1-piperidinyl}methyl)-1,2-dihydro-3H,8H-2a,5,8a-triazaacenaphthylene-3,8-dione hydrochloride] it was below 2 µg/mL. Still for that read-out and setting: in the case of `O=C1CSc2cnc(CNC3CCN(C[C@@H]4Cn5c(=O)ccc6ccc(=O)n4c65)CC3)nc2N1` [Example 34, (1R)-1-[(4-{[(7-Oxo-6,7-dihydro-1H-pyrimido[5,4-b][1,4]thiazin-2-yl)methyl]amino}-1-piperidinyl)methyl]-1,2-dihydro-4H,9H-imidazo[1,2,3-ij]-1,8-naphthyridine-4,9-dione dihydrochloride] it was below 2 µg/mL. Take `O=c1cnc2ccc(=O)n3c2n1C[C@H]3CN1CCC(NCc2ccc3c(c2)OCCO3)CC1` [Example 44, (1R)-1-({4-[(2,3-Dihydro-1,4-benzodioxin-6-ylmethyl)amino]-1-piperidinyl}methyl)-1,2-dihydro-3H,8H-2a,5,8a-triazaacenaphthylene-3,8-dione hydrochloride]: the MIC is below 2 µg/mL.
